The subject of one experiment is interferon-a (IFN-a). The conditions noted are these: healthy volunteers; oral; cited from earlier work.
The next experiment deals with HCV. To be noted: chronically HCV infected patients; cited from earlier work.
Another experiment has as its system B16 tumors. In words: Syngeneic mouse melanoma model. The conditions noted are these: cyclophosphamide 100 mg/kg IP single dose. It counts as in vivo, C57BL/6 mice. As for the experimental part:
Cancer cells were injected subcutaneously in right flank of each mouse, 1×10^4 cells in 0.1 ml PBS with 20% Matrigel. Treatment with the NTR001 was initiated on day 6 after injection of tumor cells. Tumor volume and survival were recorded every 3-4 days.

For the next experiment, the target named is T1, human TLR2 (Homo sapiens, UniProt O60603).
T1 construct: expressed in transfected cells; host or cells: HEK293
As to the kind of experiment: TLR ligand screening, NF-κB SEAP reporter in HEK293 cells expressing TLR2. It counts as cell-based. The conditions noted are these: one concentration: Guanosine 100 uM, NTR001 10 uM, Inosine 100 uM; FIG. 2. As for the experimental part:
(§1) TLR stimulation is tested by assessing NF-κB activation in HEK293 cells expressing a given TLR. The Secreted Embryonic Alkaline Phosphatase (SEAP) reporter is under the control of a promoter inducible by the transcription factor NF-κB. This reporter gene allows the monitoring of signaling through the TLR, based on the activation of NF-κB. The compounds are evaluated at one concentration and compared to control ligands. This step is performed in triplicate.

The next experiment concerns the target T2, human TLR4 (Homo sapiens, UniProt O00206).
T2 construct: expressed in transfected cells; host or cells: HEK293
In words: TLR ligand screening, NF-κB SEAP reporter in HEK293 cells expressing TLR4. In kind it is cell-based. The conditions noted are these: one concentration: Guanosine 100 uM, NTR001 10 uM, Inosine 100 uM; FIG. 2. As for the experimental part:
as §1

Another experiment has as its system tetanus toxoid vaccine. In words: Tetanus toxoid vaccine efficacy study (adjuvant) in mice. It counts as in vivo. The conditions noted are these: compared to vehicle treated group. As for the experimental part:
Tetanus toxoid (TT) was used to vaccinate mice thrice, two weeks apart. Mice were treated by oral administration of compounds NTR001 and NTR002 and serum was collected at various time points for antibody titer and interferon-g analysis. Mice in Groups 2-6 (Table 2) are vaccinated subcutaneously with 0.1 ml tetanus toxoid vaccine on DAYS 0, 14 and 28. Mice in Group 1 (Table 1) received no vaccine. Antibody titers for DAYS 38 are determined by ELISA using tetanus toxoid coated microtiter plates and anti-mouse conjugate. Sera from DAY 30 are assayed by ELISA for interferon-g.

Experiment [1] relates to L. monocytogenes (ATCC Strain35152, hemolytic substrain). As to the kind of experiment: Mouse model of L. monocytogenes infection. It counts as in vivo. To be noted: Balb/c mice infected i.v. with 1×10^6 CFU; treatments per Table 3; FIGS. 7 and 9.

Data on four molecules can be found in patent US9616129B2, “Compositions and methods for potentiating immune response, enhancing immunotherapy, and increasing vaccine potency” (Nitor Therapeutics, priority 2013, dated 2017).

T2 sequence (O00206 24-839): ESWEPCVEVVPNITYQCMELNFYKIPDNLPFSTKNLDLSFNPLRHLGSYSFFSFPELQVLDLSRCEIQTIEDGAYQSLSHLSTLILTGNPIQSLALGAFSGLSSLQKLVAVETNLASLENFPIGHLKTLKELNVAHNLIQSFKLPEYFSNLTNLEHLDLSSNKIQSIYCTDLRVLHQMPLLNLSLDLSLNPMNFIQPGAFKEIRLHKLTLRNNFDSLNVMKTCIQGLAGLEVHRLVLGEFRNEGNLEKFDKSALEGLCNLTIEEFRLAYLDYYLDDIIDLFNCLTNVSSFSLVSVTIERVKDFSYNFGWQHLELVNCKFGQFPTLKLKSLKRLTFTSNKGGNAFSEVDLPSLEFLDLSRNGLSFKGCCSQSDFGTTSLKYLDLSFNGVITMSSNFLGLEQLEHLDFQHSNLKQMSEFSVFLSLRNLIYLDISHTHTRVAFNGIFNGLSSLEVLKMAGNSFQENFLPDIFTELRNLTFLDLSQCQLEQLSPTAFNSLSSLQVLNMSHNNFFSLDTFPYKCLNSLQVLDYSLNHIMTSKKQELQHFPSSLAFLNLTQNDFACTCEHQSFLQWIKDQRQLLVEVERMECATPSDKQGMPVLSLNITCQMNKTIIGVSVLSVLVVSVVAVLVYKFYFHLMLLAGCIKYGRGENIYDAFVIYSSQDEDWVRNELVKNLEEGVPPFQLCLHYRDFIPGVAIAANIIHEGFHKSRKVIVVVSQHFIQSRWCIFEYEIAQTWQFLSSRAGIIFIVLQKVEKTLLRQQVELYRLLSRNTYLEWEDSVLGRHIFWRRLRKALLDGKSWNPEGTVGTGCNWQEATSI
T2 sequence (Q9Y6Y9 17-160 partner limits assumed): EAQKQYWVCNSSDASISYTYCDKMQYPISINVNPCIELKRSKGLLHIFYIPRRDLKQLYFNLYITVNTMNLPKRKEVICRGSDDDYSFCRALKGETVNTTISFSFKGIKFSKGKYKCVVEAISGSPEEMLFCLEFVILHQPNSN
T1 sequence (O60603 21-784): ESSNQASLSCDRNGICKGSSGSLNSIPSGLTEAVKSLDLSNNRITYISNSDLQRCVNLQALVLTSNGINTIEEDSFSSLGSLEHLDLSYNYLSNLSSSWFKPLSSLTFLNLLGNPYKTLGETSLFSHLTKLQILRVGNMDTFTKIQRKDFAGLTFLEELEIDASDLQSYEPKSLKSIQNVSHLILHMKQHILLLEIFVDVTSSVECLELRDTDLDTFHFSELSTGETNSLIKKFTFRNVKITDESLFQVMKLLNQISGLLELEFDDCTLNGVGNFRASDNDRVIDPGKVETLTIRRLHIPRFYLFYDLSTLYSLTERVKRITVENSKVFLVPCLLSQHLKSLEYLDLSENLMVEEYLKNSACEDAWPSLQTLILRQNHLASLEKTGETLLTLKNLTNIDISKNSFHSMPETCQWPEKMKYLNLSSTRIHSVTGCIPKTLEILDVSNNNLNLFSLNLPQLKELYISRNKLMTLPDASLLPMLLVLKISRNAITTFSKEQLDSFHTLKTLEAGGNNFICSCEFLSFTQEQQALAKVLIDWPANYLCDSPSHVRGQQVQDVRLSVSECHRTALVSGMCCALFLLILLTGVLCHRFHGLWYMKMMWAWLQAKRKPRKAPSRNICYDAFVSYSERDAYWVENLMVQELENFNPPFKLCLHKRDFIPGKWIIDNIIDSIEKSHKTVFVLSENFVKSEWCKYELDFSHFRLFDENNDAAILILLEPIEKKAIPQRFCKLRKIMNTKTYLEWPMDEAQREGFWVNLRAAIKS

On to `CC(=O)O[C@@H]1C[C@@H](CO)O[C@H]1n1c(=O)sc2cnc(N)nc21` [ANA773], for which the “induction of endogenous interferon-a (IFN-a)” value in the experiment with interferon-a (IFN-a) is on record as “induce endogenous interferon-a (IFN-a) of multiple subtypes”. In the experiment with HCV, the “HCV RNA” value is recorded as “dose-dependent reduction”.
Take `O=P1(N(CCCl)CCCl)NCCCO1` (centres unmarked) [Cycicophosphamide, Cyclophosphamide]: in the experiment on B16 tumors, the survival turned out to be 30%.
Consider `Nc1nc2c(ncn2[C@@H]2O[C@H](CO)[C@@H](O)[C@H]2O)c(=O)[nH]1` [Guanosine], for which, on human TLR2, the “stimulatory effect on human TLR2 (NF-κB activation)” value is on record as “significant stimulatory effect”. Further, on human TLR4, the “stimulatory effect on human TLR4 (NF-κB activation)” value is given as “significant stimulatory effect”.
Consider `O=c1[nH]cnc2c(CN3C[C@H](CO)[C@@H](O)C3)c[nH]c12` [NTR002, 1,5-dihydro-7-[[(3R,4R)-3-hydroxy-4-(hydroxymethyl)pyrrolidin-1-yl]methyl]-4H-pyrrolo[3,2-d]pyrimidin-4-one], for which, in the experiment with tetanus toxoid vaccine (day 30, ELISA, high dose group 60 mg/kg p.o., FIG. 4), the serum interferon-g result is listed as “elevated”. Further, the “serum tetanus toxoid antibody titers” value with tetanus toxoid vaccine (day 38, ELISA, p.o. 30 mg/kg (6 days of treatment) and 60 mg/kg (3 days of treatment), FIG. 3) is “significantly elevated”. In addition, the weight loss result in experiment [1] was “significant decrease”.
